From patent US12227743B2, “Pharmaceutical composition for treatment of diseases associated with upregulated periostin expression or periostin splice variant switching” (Osaka University, priority 2018, dated 2025)

What was measured:
[1] = system: downstream molecules of TGF-β-induced signaling; test: Quantitative PCR of downstream molecules of TGF-β-induced signaling in hRPTEC transfected with antisense oligonucleotide; assay type: cell-based, human; conditions: vs TGF-β (+) Control AS, FIG. 15
Procedure: Human renal proximal tubular epithelial cells (hRPTEC, ATCC No. PCS-400-010) were cultured in a renal epithelial cell basal medium (REBM, Cambrex Bio Science Inc.) with 10% fetal bovine serum (FBS) and 1% penicillin/streptomycin. The cells were transfected with the human exon 17-skipping antisense oligonucleotide (Pn exon 17 AS) or the control antisense oligonucleotide (Control AS) as described in Example 1. At 24 hours after transfection, the medium was replaced by a serum-free medium. At 24 hours thereafter, human TGF-β1 (PeproTech) was added to the medium, and culture was continued for additional 24 hours. After cell culture, total RNA was extracted from the cells and subjected to cDNA synthesis (see Reference Example 1). The resulting cDNA was subjected to quantitative PCR using the primers shown below to measure the expression level of the splice variant Pn1 (containing exons 17 and 21, see FIG. 1) (n=3 per group) and the mRNA expression levels of the downstream molecules of TGF-β-induced signaling (αSMA, Snail 1, TNFα, CTGF, vimentin) (n=4 per group). Statistical analysis was performed by analysis of variance and Tukey-Kramer adjustment using the JMP statistical software package.

[2] = system: human breast cancer cell line BT549; test: ATP assay (CellTiter-Glo, ATP production) in transfected BT549 cells with or without paclitaxel; assay type: cell-based; conditions: 72 hours
Procedure: (§1) Periostin-highly-expressing human breast cancer cell line BT549 was cultured in RPMI 1640 with 10% FBS and 1% penicillin/streptomycin. The BT549 cells are a triple-negative breast cancer cell line, which is negative for estrogen receptor, progesterone receptor, and human epidermal growth factor receptor 2 (HER2).
(§2) The BT549 cells were transfected with the human exon 17-skipping antisense oligonucleotide or the human exon 21-skipping antisense oligonucleotide as described in Example 1. The cells were subsequently seeded in an amount of 5×10^3 cells/well on a 96-well plate. Similarly, the BT549 cells were transfected with the control antisense oligonucleotide and seeded on a 96-well plate as the control group. On the day after seeding, paclitaxel was added at a final concentration of 10 nM to the wells. After 72 hours of culture, cell proliferation (number of viable cells) and ATP-producing capacity (ATP quantification) were evaluated. The number of viable cells was measured using the CellTiter 96 AQueous One Solution Cell Proliferation Assay (trade name, Promega, #G3582) (MTS assay). The amount of ATP was measured using the CellTiter-Glo Luminescent Cell Viability Assay (trade name, Promega, #G7570) (ATP assay). The Tukey-Kramer test was used for intergroup comparison.

[3] = system: human breast cancer cell line BT549; test: MTS assay (number of viable cells) in transfected BT549 cells with or without paclitaxel; assay type: cell-based; conditions: 72 hours
Procedure: as §1, §2

[4] = system: Luciferase-expressing mouse breast cancer (4T1-Luc) cells; test: Pulmonary metastasis (lung luciferase activity) in nude mice after tail vein injection of transfected 4T1-Luc cells; assay type: in vivo; conditions: 5×10^5 transfected 4T1-Luc cells via tail vein, 5 days after injection, vs control antisense, FIG. 16
Procedure: Luciferase-expressing mouse breast cancer (4T1-Luc) cells were cultured in DMEM with 10% FBS and 1% penicillin/streptomycin. A morpholino antisense oligonucleotide designed to induce skipping of exon 17 of a mouse periostin gene was purchased from Funakoshi Co., Ltd. The nucleotide sequence of the antisense oligonucleotide is as follows.
The mouse exon 17-skipping antisense oligonucleotide targets the region of positions 21118 to 21142 of the mouse periostin gene represented by SEQ ID NO: 2.
The 4T1-Luc cells were transfected with the mouse exon 17-skipping antisense oligonucleotide or the control antisense oligonucleotide (SEQ ID NO: 6) as described in Example 1. After 2 days of culture, the cells were detached, and cell suspension was prepared. The cell suspension (containing 5×10^5 4T1-Luc cells per mouse) was injected via the tail vein to nude mice (BALB/c-nu, female, 8 to 10 weeks old) (n=3 per group). At 5 days after injection, the lung was excised from each mouse under anesthesia and homogenized. The homogenate was subjected to the measurement of luciferase activity using the Dual-Luciferase Reporter Assay System (Promega, #E1910). The Mann Whitney test (MWU) was used for comparison between the two groups.

[5] = BT549, no paclitaxel, vs control antisense transfected cells, FIG. 18A
[6] = BT549, paclitaxel 10 nM, vs control antisense transfected cells, FIG. 18B
[7] = BT549, paclitaxel 10 nM, vs control antisense transfected cells, FIG. 17B

| Substance | CTGF mRNA expression, TGF-β induction [1] | Snail 1 mRNA expression, TGF-β induction [1] | TNFα mRNA expression, TGF-β induction [1] | Vimentin mRNA expression, TGF-β induction [1] | αSMA mRNA expression, TGF-β induction [1] | ATP production [2, 5] | ATP production [2, 6] | cell proliferation (number of viable cells, MTS) [3, 7] | ATP production ([2]; BT549, no paclitaxel, vs exon 17-skipping antisense transfected cells, FIG. 18A) | ATP production ([2]; BT549, paclitaxel 10 nM, vs exon 17-skipping antisense transfected cells, FIG. 18B) | cell proliferation (number of viable cells, MTS) ([3]; BT549, no paclitaxel, vs exon 17-skipping and control antisense transfected cells, FIG. 17A) | luciferase activity in lung homogenate (pulmonary metastasis) [4] |
| --- | --- | --- | --- | --- | --- | --- | --- | --- | --- | --- | --- | --- |
| exon 17-skipping antisense oligonucleotide: Morpholino antisense oligonucleotide 5′-CCATGTATAACATTGATTTTTACCTTCAGT-3′ designed to induce skipping of exon 17 of a human periostin gene (all phosphorodiamidate morpholino (PMO)) | significantly suppressed | significantly suppressed | significantly suppressed | significantly suppressed | significantly suppressed | significant reduction | significant reduction | significant reduction |  |  |  |  |
| exon 21-skipping antisense oligonucleotide: Morpholino antisense oligonucleotide 5′-TTGTTGTCCTTTTACTAACCTCCCT-3′ designed to induce skipping of exon 21 of a human periostin gene (all phosphorodiamidate morpholino (PMO)) |  |  |  |  |  | significant reduction | significant reduction | significant reduction | significant reduction | significant reduction | significant reduction |  |
| mouse exon 17-skipping antisense oligonucleotide: Morpholino antisense oligonucleotide 5′-TGCTGAAAACATAGAAAGTGGAGCA-3′ designed to induce skipping of exon 17 of a mouse periostin gene (all phosphorodiamidate morpholino (PMO)) |  |  |  |  |  |  |  |  |  |  |  | very low |
